Values quoted from earlier work in patent publication US20060240101A1, “Orally disintegrating pharmaceutical tablet formulations of olanzapine” (priority 2005, published 2006).

Details: for water solubility: at 20° C.

Compound | water solubility | solubility in water (2005 Physician Desk Reference label information for Zyprexa)
OC[C@@H](O)[C@@H](O)[C@H](O)[C@H](O)CO [Pearlitol® 50C, mannitol] | approximately 250 g/l | 
OC[C@@H](O)[C@@H](O)[C@H](O)[C@H](O)CO [Pearlitol® 200 SD, mannitol] | approximately 170 g/l | 
Cc1cc2c(s1)Nc1ccccc1N=C2N1CCN(C)CC1 [olanzapine, 2-methyl-4-(4-methyl-1-piperanzinyl)-10H-thieno[2,3-b][1,5] benzodiazepine] |  | insoluble in water
